Results taken from BindingDB's records for doi:10.1021/jm00077a015 (Universität Regensburg, 1994).

These compounds were tested against lipid peroxidation in brain phospholipid liposomes (Bos taurus) (assay: Tested for the inhibition of lipid peroxidation in bovine brain phospholipid liposomes).
For `O=C1c2c(O)cccc2C(C(=O)Cc2ccc(O)c(O)c2)c2cccc(O)c21` [10-[2-(3,4-Dihydroxy-phenyl)-acetyl]-1,8-dihydroxy-10H-anthracen-9-one], the IC50 was 1 µM.
`O=C1c2c(O)cccc2C(=Cc2cc(O)c(O)c(O)c2)c2cccc(O)c21` [1,8-Dihydroxy-10-(3,4,5-trihydroxy-benzylidene)-10H-anthracen-9-one] showed an IC50 of 2 µM.
With `O=C1c2c(O)cccc2C(=Cc2ccc(O)c(O)c2)c2cccc(O)c21` [10-(3,4-dihydroxybenzylidene)-1,8-dihydroxyanthracen-9(10H)-one] the IC50 was 2 µM.
`O=C1c2c(O)cccc2C(=Cc2ccc([N+](=O)[O-])cc2)c2cccc(O)c21` [1,8-dihydroxy-10-(4-nitrobenzylidene)anthracen-9(10H)-one] was tested, and the IC50 was 14 µM.
Compound `CCCC(=O)C1c2cccc(O)c2C(=O)c2c(O)cccc21` [10-Butyryl-1,8-dihydroxy-10H-anthracen-9-one(Butantrone)] has an IC50 of 4 µM.
With `O=C1c2c(O)cccc2C(=Cc2ccc(O)cc2)c2cccc(O)c21` [1,8-Dihydroxy-10-(4-hydroxy-benzylidene)-10H-anthracen-9-one] the IC50 was 8 µM.
In the case of `O=C1c2c(O)cccc2C(=Cc2ccccc2)c2cccc(O)c21` [10-benzylidene-1,8-dihydroxyanthracen-9(10H)-one], the IC50 is reported as 8 µM.
